For assay [1], the target named is T1, SARS-CoV-2 PLpro (nsp3 1564–1878) (Severe acute respiratory syndrome coronavirus 2, UniProt P0DTD1). Briefly: biochemical. Also noted: FRET-quenched peptide (Pro3) cleavage by PLpro, 10 min pre-incubation, slope over 20 min, normalised to no-compound control. Particulars: read-out: % of control remaining.
The target in assay [2] is T1, SARS-CoV-2 PLpro (nsp3 1564–1878). The experiment in a line: biochemical. Particulars: read-out: % of control remaining. Also noted: FRET-quenched peptide (Pro3) cleavage by PLpro, 10 min pre-incubation, slope over 20 min, normalised to no-compound control. The source holds these as a separate data set.

Experimental findings from PMC8286840, “Identifying SARS-CoV-2 antiviral compounds by screening for small molecule inhibitors of Nsp3 papain-like protease” (Biochemical Journal, 2021) are described below.

Counter-ions that a name gives are not always drawn. Like-named read-outs stand apart in the source and are kept apart here.

`OC(c1ccccc1)(c1ccccc1)C1CCNCC1` [Azacyclonol]: the remaining activity at 3.75 µM in assay [1] (Well no.=5068, high concentration screen) was 103%. In addition, in assay [2] (Well no.=5068, low concentration screen), the remaining activity at 1.25 µM is 97.2%.
As for `CC(O)Cn1cnc2c1c(=O)n(C)c(=O)n2C` (centres unmarked) [Proxyphylline], the remaining activity at 3.75 µM in assay [1] (Well no.=6220, high concentration screen) stood at 94%; in assay [1] (Well no.=8073, high concentration screen), 108%. Moreover, the remaining activity at 1.25 µM in assay [2] (Well no.=6220, low concentration screen) worked out at 94.5%; in assay [2] (Well no.=8073, low concentration screen) it was 105%.
Take `NCCSSCCN` [Cystamine dihydrochloride]: the remaining activity at 3.75 µM in assay [1] (Well no.=280, high concentration screen) turned out to be 99.9%. Besides, in assay [2] (Well no.=280, low concentration screen), the remaining activity at 1.25 µM came out at 97%.
Consider `NS(=O)(=O)NCCNc1nonc1/C(=N/O)Nc1ccc(F)c(Br)c1` [Epacadostat (INCB024360)], for which, in assay [1] (Well no.=8722, high concentration screen), the remaining activity at 3.75 µM was 95.9%. Further, the remaining activity at 1.25 µM in assay [2] (Well no.=8722, low concentration screen) was determined as 99.6%.
With `CCCCCCCCCCCCCCCCC(=O)O` [Heptadecanoic acid], in assay [1] (Well no.=4308, high concentration screen), the remaining activity at 3.75 µM turned out to be 101%. Also, the remaining activity at 1.25 µM in assay [2] (Well no.=4308, low concentration screen) was determined as 106%.
Take `NCCCC[C@H](N[C@@H](CCc1ccccc1)C(=O)O)C(=O)N1CCC[C@H]1C(=O)O` [Lisinopril]: the remaining activity at 3.75 µM in assay [1] (Well no.=2270, high concentration screen) came to 93.2%. In addition, the remaining activity at 1.25 µM in assay [2] (Well no.=2270, low concentration screen) turned out to be 91.3%.
`CC(CN(C)C)CN1c2ccccc2Sc2ccc(C#N)cc21` (centres unmarked) [Cyamemazine]: in assay [1] (Well no.=5789, high concentration screen), the remaining activity at 3.75 µM amounted to 105%. The remaining activity at 1.25 µM in assay [2] (Well no.=5789, low concentration screen) is 102%.
`CCCC(=O)OC(CNC(C)(C)C)COc1nsnc1N1CCOCC1` (racemic) [(RS)-Butyryltimolol]: the remaining activity at 3.75 µM in assay [1] (Well no.=7133, high concentration screen) came to 96.2%. Also, in assay [2] (Well no.=7133, low concentration screen), the remaining activity at 1.25 µM was found to be 102%.
In the case of `COc1ccc(CNc2nc(N3CCC[C@H]3CO)ncc2C(=O)NCc2ncccn2)cc1Cl` [Avanafil], in assay [1] (Well no.=5078, high concentration screen), the remaining activity at 3.75 µM came to 100%. The remaining activity at 1.25 µM in assay [2] (Well no.=5078, low concentration screen) is 101%.
As to `Cc1ccc(-c2ccc3c(c2)C=C(C(=O)Nc2ccc(C[N+](C)(C)C4CCOCC4)cc2)CCC3)cc1` [TAK-779], the remaining activity at 3.75 µM in assay [1] (Well no.=8357, high concentration screen) was determined as 101%. In addition, the remaining activity at 1.25 µM in assay [2] (Well no.=8357, low concentration screen) was 102%.
Regarding `N[C@@H]1CN(c2c(F)cc3c(=O)c(C(=O)O)cn([C@@H]4C[C@@H]4F)c3c2Cl)CC12CC2` [Sitafloxacin hydrate], in assay [1] (Well no.=4770, high concentration screen), the remaining activity at 3.75 µM was 93.3%. In assay [2] (Well no.=4770, low concentration screen), the remaining activity at 1.25 µM came to 97.9%.
Regarding `CN(C)c1ccc(C(=C2C=CC(=[N+](C)C)C=C2)c2ccc(N(C)C)cc2)cc1` [Crystal violet], in assay [1] (Well no.=5000, high concentration screen), the remaining activity at 3.75 µM amounted to 101%. Moreover, the remaining activity at 1.25 µM in assay [2] (Well no.=5000, low concentration screen) turned out to be 101%.
With `Nc1ccc(S(=O)(=O)Nc2cnc3ccccc3n2)cc1` [Sulfaquinoxaline sodium salt], the remaining activity at 3.75 µM in assay [1] (Well no.=8124, high concentration screen) was found to be 100%. The remaining activity at 1.25 µM in assay [2] (Well no.=8124, low concentration screen) was 103%.
Take `CC1(C)CNc2cc(NC(=O)c3cccnc3NCc3ccncc3)ccc21` [Motesanib Diphosphate (AMG-706)]: in assay [1] (Well no.=4611, high concentration screen), the remaining activity at 3.75 µM is 100%. Also, the remaining activity at 1.25 µM in assay [2] (Well no.=4611, low concentration screen) turned out to be 101%.
As for `CC(=O)Oc1cc(C(F)(F)F)ccc1C(=O)O` [Triflusal], the remaining activity at 3.75 µM in assay [1] (Well no.=4942, high concentration screen) came out at 96.4%. Besides, in assay [2] (Well no.=4942, low concentration screen), the remaining activity at 1.25 µM came out at 98.7%.
Consider `Nc1c(S(=O)(=O)O)cc(Nc2ccc(Nc3nc(Cl)nc(Nc4cccc(S(=O)(=O)O)c4)n3)c(S(=O)(=O)O)c2)c2c1C(=O)c1ccccc1C2=O` [Reactive Blue 2], for which the remaining activity at 3.75 µM in assay [1] is 101%. Moreover, the remaining activity at 1.25 µM in assay [2] was determined as 101%.
Regarding `CC(C)[C@@]1(NC(=O)[C@@H]2C[C@@H]3c4cccc5[nH]cc(c45)C[C@H]3N(C)C2)O[C@@]2(O)[C@@H]3CCCN3C(=O)[C@H](Cc3ccccc3)N2C1=O` [Dihydroergocristine mesylate], the remaining activity at 3.75 µM in assay [1] (Well no.=3231, high concentration screen) is 105%. In addition, in assay [2] (Well no.=3231, low concentration screen), the remaining activity at 1.25 µM worked out at 108%.
On to `Cc1ccc(-c2c(-c3nn(C)c4ncnc(N5CC[C@H](N6CCCCC6)C5)c34)cnn2C)cc1` [CYP3cide], for which, in assay [1] (Well no.=5646, high concentration screen), the remaining activity at 3.75 µM is 91.1%. Also, the remaining activity at 1.25 µM in assay [2] (Well no.=5646, low concentration screen) was determined as 95.6%.
